According to patent US11168102B1, “Bicyclic heteroaryl compounds and uses thereof” (Revolution Medicines, Inc., priority 2019, dated 2021):
Like-named read-outs stand apart in the source and are kept apart here.

Columns and labels:
[1] = target: SOS1 nucleotide exchange of wild-type KRAS (Homo sapiens (Human), UniProt Q07889); assay: Mode of action assay: inhibition of SOS1 nucleotide exchange activity (TR-FRET); type: biochemical; conditions: SOS1 catalytic domain (564-1049), avi-tagged KRAS (1-169), EDA-GTP-DY-647P1; three replicates
[2] = test system: cellular pERK in PC-9 cells (EGFR Ex19Del); assay: Potency assay: pERK (AlphaLISA SureFire Ultra p-ERK1/2) in PC-9 cells; type: cell-based; conditions: PC-9 cells (EGFR Ex19Del), 1 hour incubation, AlphaLISA SureFire Ultra p-ERK1/2, read-out: SOS1 pERK IC50
[3] = target: SOS1 catalytic domain (residues 564-1049) (Homo sapiens (Human), UniProt Q07889); assay: Potency assay: binding affinity to SOS1 by Surface Plasmon Resonance (SPR); conditions: avi-tagged SOS1 catalytic domain immobilized on sensor chip; 1:1 equilibrium binding fit
Chain of SOS1 catalytic domain (residues 564-1049) (Q07889 564-1049): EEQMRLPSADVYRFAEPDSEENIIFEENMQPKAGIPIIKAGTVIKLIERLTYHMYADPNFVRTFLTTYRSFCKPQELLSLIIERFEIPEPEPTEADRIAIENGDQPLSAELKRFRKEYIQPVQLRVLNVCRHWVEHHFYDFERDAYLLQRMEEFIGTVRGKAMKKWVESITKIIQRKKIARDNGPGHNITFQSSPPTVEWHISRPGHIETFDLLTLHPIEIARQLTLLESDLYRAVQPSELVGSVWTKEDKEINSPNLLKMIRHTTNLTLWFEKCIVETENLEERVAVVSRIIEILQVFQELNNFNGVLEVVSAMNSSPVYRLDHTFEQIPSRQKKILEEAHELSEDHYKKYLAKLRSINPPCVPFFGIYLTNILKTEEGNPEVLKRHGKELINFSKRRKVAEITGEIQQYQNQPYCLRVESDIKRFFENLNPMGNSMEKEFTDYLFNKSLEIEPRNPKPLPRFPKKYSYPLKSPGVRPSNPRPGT

Chain of SOS1 nucleotide exchange of wild-type KRAS (Q07889 564-1049): as above

Row | Structure (SMILES) | IC50 ([2]; Homo sapiens, PC-9, 1 h) [nM] | also measured
1 | Cc1nc(N[C@H](C)c2cccc(C(F)F)c2F)c2cc(N3CC(F)(F)C3)c(=O)n(C)c2n1 [Example 2-2] | 427 | IC50 [1]: 2080 nM
2 | Cc1nc(N[C@H](C)c2cccc(C(F)F)c2F)c2cc(N3CC4(COC4)C3)c(=O)n(C)c2n1 [Example 2-3] | 188 | Kd [3]: 89 nM
3 | Cc1nc(N[C@H](C)c2cccc(C(F)F)c2F)c2cc(C3=CCCOC3)c(=O)n(CCO)c2n1 [Example 11-1] |  | Kd [3]: 81.3 nM
4 | COc1ccc(Cc2cc3c(N[C@H](C)c4cccc(C(F)F)c4F)nc(C)nc3n(C)c2=O)cc1OC [Example 20-1] |  | IC50 [1]: 6170 nM
5 | COc1cccc(Cc2cc3c(N[C@H](C)c4cccc(C(F)F)c4F)nc(C)nc3n(C)c2=O)c1OC [Example 20] |  | IC50 [1]: > 20000 nM
6 | C[C@@H](Nc1ncnc2c1cc(C(=O)N1CC3CC1CO3)c(=O)n2C)c1cccc(C(F)F)c1F (stereo partly shown) [Example 26-6] | 8830 | IC50 [1]: > 20000 nM
7 | COC1(c2cc3c(N[C@H](C)c4cccc(C(F)F)c4F)nc(C)nc3n(C)c2=O)CCN(C(C)=O)CC1 [Example 32-32] | 9.79 | IC50 [1]: 4.77 nM
8 | C[C@@H](Nc1ncnc2c1cc(C1=CCS(=O)(=O)CC1)c(=O)n2C)c1cccc(C(F)(F)C#N)c1 [Example 40, 2-{3-[(1R)-1-{[6-(1,1-dioxo-3,6-dihydro-2H-1λ^6-thiopyran-4-yl)-8-methyl-7-oxo-7H,8H-pyrido[2,3-d]pyrimidin-4-yl]amino}ethyl]phenyl}-2,2-difluoroacetonitrile] | 1370 | 
9 | C[C@@H](Nc1ncnc2c1cc(C1=CCS(=O)(=O)CC1)c(=O)n2C)c1cccc(C(F)(F)C#N)c1F [Example 41, 2-{3-[(1R)-1-{[6-(1,1-dioxo-3,6-dihydro-2H-1λ^6-thiopyran-4-yl)-8-methyl-7-oxo-7H,8H-pyrido[2,3-d]pyrimidin-4-yl]amino}ethyl]-2-fluorophenyl}-2,2-difluoroacetonitrile] | 4480 | 
10 | C[C@H](Nc1ncnc2c1cc(C1=CCS(=O)(=O)CC1)c(=O)n2C)c1cccc(C(F)(F)C#N)c1F [Example 41-1] | > 10000 | 
11 | C[C@@H](Nc1ncnc2c1cc(C1=CCS(=O)(=O)CC1)c(=O)n2C)c1cccc(C(F)(F)CN)c1F [Example 42, 4-(4-{[(1R)-1-[3-(2-amino-1,1-difluoroethyl)-2-fluorophenyl]ethyl]amino}-8-methyl-7-oxo-7H,8H-pyrido[2,3-d]pyrimidin-6-yl)-3,6-dihydro-2H-1λ^6-thiopyran-1,1-dione] | 242 | 
12 | CC(=O)N1CCC(c2cc3c(N[C@H](C)c4cc(C(F)F)cc(C5(F)CNC5)c4)ncnc3n(C)c2=O)CC1 [Example 43, 6-(1-acetyl-4-piperidyl)-4-[[(1R)-1-[3-(difluoromethyl)-5-(3-fluoroazetidin-3-yl)phenyl]ethyl]amino]-8-methyl-pyrido[2,3-d]pyrimidin-7-one] | > 7290 | 
13 | CC(=O)N1CCC(c2cc3c(N[C@H](C)c4cc(C(F)(F)F)cc(N)n4)ncnc3n(C)c2=O)CC1 [Example 44, 6-(1-acetyl-4-piperidyl)-4-[1-[6-amino-4-(trifluoromethyl)-2-pyridyl]ethylamino]-8-methyl-pyrido[2,3-d]pyrimidin-7-one] | 179 | 
14 | CC(=O)N1CCC(c2cc3c(N[C@H](C)c4cc(C(F)F)c5cc[nH]c5c4)ncnc3n(C)c2=O)CC1 [Example 48, 6-(1-acetyl-4-piperidyl)-4-[[(1R)-1-[4-(difluoromethyl)-1H-indol-6-yl]ethyl]amino]-8-methyl-pyrido[2,3-d]pyrimidin-7-one] | 1520 | 
15 | CN=S1(=O)CCC(F)(c2cc3c(N[C@H](C)c4cccc(C(F)F)c4F)ncnc3n(C)c2=O)CC1 (stereo partly drawn) [Example 52, 4-(((R)-1-(3-(difluoromethyl)-2-fluorophenyl)ethyl)amino)-6-((1R,4r)-4-fluoro-1-(methylimino)-1-oxidohexahydro-1λ-thiopyran-4-yl)-8-methylpyrido[2,3-d]pyrimidin-7(8H)-one] |  | IC50 [2]: 70.6 nM
16 | COn1c(=O)c(C2CCS(=O)(=O)CC2)cc2c(N[C@H](C)c3cccc(C(F)F)c3F)ncnc21 [Example 53, 4-(4-{[(1R)-1-[3-(difluoromethyl)-2-fluorophenyl]ethyl]amino}-8-methoxy-7-oxo-7H,8H-pyrido[2,3-d]pyrimidin-6-yl)-1λ^6-thiane-1,1-dione] | 36.7 | 
17 | CC(=O)N1CCC(c2cc3c(N[C@H](C)c4cccc(C(F)(F)C5CN(C6CC6)CCO5)c4F)ncnc3n(C)c2=O)CC1 (stereo partly drawn) [Example 55, 6-(1-acetyl-4-piperidyl)-4-[[(1R)-1-[3-[(4-cyclopropylmorpholin-2-yl)-difluoro-methyl]-2-fluoro-phenyl]ethyl]amino]-8-methyl-pyrido[2,3-d]pyrimidin-7-one] | 109 | 

Row | Structure (SMILES) | IC50 ([2]; Homo sapiens, PC-9, 1 h) [nM] | also measured
18 | C[C@@H](Nc1ncnc2c1cc(C1(F)CCS(=O)(=NC3CC3)CC1)c(=O)n2C)c1cccc(C(F)F)c1F (stereo partly drawn) [Example 56, 6-((1R,4r)-1-(cyclopropylimino)-4-fluoro-1-oxidohexahydro-1λ^6-thiopyran-4-yl)-4-(((R)-1-(3-(difluoromethyl)-2-fluorophenyl)ethyl)amino)-8-methylpyrido[2,3-d]pyrimidin-7(8H)-one] | 57.2 | 
19 | C[C@@H](Nc1ncnc2c1cc(C1(F)CCS(=O)(=NC3CC3)CC1)c(=O)n2C)c1cccc2c1OCC2(F)F (stereo partly shown) [Example 56-4] | 50 | 
20 | C[C@@H](Nc1ncnc2c1cc(C1(F)CCS(=O)(=NC3CC3)CC1)c(=O)n2C)c1cccc2c1OCC2(F)F (stereo partly shown) [Example 56-5] |  | IC50 [2]: 44.1 nM
21 | C[C@@H](Nc1ncnc2c1cc(C1(C#N)CCS(=O)(=NC3CC3)CC1)c(=O)n2C)c1cccc(C(F)F)c1F (stereo partly drawn) [Example 59, (1S,4s)-1-(cyclopropylimino)-4-(4-(((R)-1-(3-(difluoromethyl)-2-fluorophenyl)ethyl)amino)-8-methyl-7-oxo-7,8-dihydropyrido[2,3-d]pyrimidin-6-yl)hexahydro-1λ^6-thiopyran-4-carbonitrile 1-oxide] |  | IC50 [2]: 28.8 nM
22 | C[C@@H](Nc1ncnc2c1cc(C1CCS(=O)(=NC3COC3)CC1)c(=O)n2C)c1cccc(C(F)F)c1F (stereo partly drawn) [Example 60, 4-[[(1R)-1-[3-(difluoromethyl)-2-fluoro-phenyl]ethyl]amino]-8-methyl-6-[1-(oxetan-3-ylimino)-1-oxo-thian-4-yl]pyrido[2,3-d]pyrimidin-7-one] | 23.1 | 
23 | COc1ccc(COC2(c3cc4c(N[C@H](C)c5cccc(C(F)F)c5F)ncnc4n(C)c3=O)CC2)cc1 [Example 61, 4-[[(1R)-1-[3-(difluoromethyl)-2-fluoro-phenyl]ethyl]amino]-6-[1-[(4-methoxyphenyl)methoxy]cyclopropyl]-8-methyl-pyrido[2,3-d]pyrimidin-7-one] | 647 | 
24 | COC1(c2cc3c(N[C@H](C)c4nccc(C(F)F)c4F)ncnc3n(C)c2=O)CCN(C(C)=O)CC1 [Example 62, 6-(1-acetyl-4-methoxy-4-piperidyl)-4-[[(1R)-1-[4-(difluoromethyl)-3-fluoro-2-pyridyl]ethyl]amino]-8-methyl-pyrido[2,3-d]pyrimidin-7-one] | 262 | 
25 | C[C@@H](Nc1ncnc2c1cc(C1=CCS(=O)(=O)CC1)c(=O)n2C)c1cccc(C(F)F)c1CC#N [Example 63, 2-[2-(difluoromethyl)-6-[(1R)-1-[[6-(1,1-dioxo-3,6-dihydro-2H-thiopyran-4-yl)-8-methyl-7-oxo-pyrido[2,3-d]pyrimidin-4-yl]amino]ethyl]phenyl]acetonitrile] | > 10000 | 
26 | C[C@@H](Nc1ncnc2c1cc(C1=CCS(=O)(=NC3COC3)CC1)c(=O)n2C)c1cccc(C(F)F)c1F (stereo partly drawn) [Example 65, 4-(((R)-1-(3-(difluoromethyl)-2-fluorophenyl)ethyl)amino)-8-methyl-6-((S)-1-(oxetan-3-ylimino)-1-oxido-1,2,3,6-tetrahydro-1λ^6-thiopyran-4-yl)pyrido[2,3-d]pyrimidin-7(8H)-one] |  | IC50 [2]: 66.8 nM
27 | C[C@@H](Nc1ncnc2c1cc(C1=CCS(=O)(=NC3COC3)CC1)c(=O)n2C)c1cccc(C(F)F)c1F (stereo partly drawn) [Example 66, 4-(((R)-1-(3-(difluoromethyl)-2-fluorophenyl)ethyl)amino)-8-methyl-6-((R)-1-(oxetan-3-ylimino)-1-oxido-1,2,3,6-tetrahydro-1λ^6-thiopyran-4-yl)pyrido[2,3-d]pyrimidin-7(8H)-one] |  | IC50 [2]: 29.1 nM
28 | C[C@@H](Nc1ncnc2c1cc(C1CCS(=N)(=O)CC1)c(=O)n2C)c1cccc(C(F)F)c1F (stereo partly drawn) [Example 67, 4-[[(1R)-1-[3-(difluoromethyl)-2-fluoro-phenyl]ethyl]amino]-6-(1-imino-1-oxo-thian-4-yl)-8-methyl-pyrido[2,3-d]pyrimidin-7-one] | 16.1 | 
29 | COC1(c2cc3c(N[C@H](C)c4cccc(C(F)F)c4F)ncnc3n(C)c2=O)CCC2(CC1)CS(=O)(=NC1CC1)C2 (stereo partly shown) [Example 68-1] | 24.1 | 
30 | COC1(c2cc3c(C[C@H](C)c4cccc(C(F)F)c4F)ncnc3n(C)c2=O)CC2(C1)CS(=O)(=NC1CC1)C2 (stereo partly shown) [Example 68-2] | 136 | 
31 | COC1(c2cc3c(C[C@H](C)c4cccc(C(F)F)c4F)ncnc3n(C)c2=O)CC2(C1)CS(=O)(=NC1CC1)C2 (stereo partly shown) [Example 68-3] |  | IC50 [2]: 100 nM
32 | CC(=O)NC12CC(c3cc4c(N[C@H](C)c5cccc(C(F)F)c5F)ncnc4n(C)c3=O)(C1)C2 [Example 70, N-[3-(4-{[(1R)-1-[3-(difluoromethyl)-2-fluorophenyl]ethyl]amino}-8-methyl-7-oxo-7H,8H-pyrido[2,3-d]pyrimidin-6-yl)bicyclo[1.1.1]pentan-1-yl]acetamide] | 121 | 
33 | COC1(c2cc3c(N[C@H](C)c4ccnc(C(F)F)c4F)ncnc3n(C)c2=O)CCN(C(C)=O)CC1 [Example 71, 6-(1-acetyl-4-methoxy-4-piperidyl)-4-[[(1R)-1-[2-(difluoromethyl)-3-fluoro-4-pyridyl]ethyl]amino]-8-methyl-pyrido-[2,3-d]pyrimidin-7-one] | 528 | 
